# Legend:
# human melanoma tumors = assay: histopathology analysis of human melanoma (Skmel-28) tumors induced in nude athymic mice; type: in vivo; conditions: topical application for 30 days, H & E or S-100 stain
# Protocol: Skmel-28 cells were grown in 5% serum supplemented DMEM/F12 medium to 80% confluency. The cells were trypsinized and pelleted using a centrifuge. The pellets were then resuspended in cold PBS. The subjects for this study were nude athymia mice. Each subject received two injections of the cell suspension on the dorsal region of the mouse. After a visual assessment of the establishment of a tumor, treatment with a topical application would commence. After 30 days of treatment, the tumors were excised from the mice and placed in formalin. Each tumor sample was embedded in paraffin and sliced using a microtome. The slides underwent an H & E or S-100 stain. These samples were than analyzed by a pathologist to assess the vascular integrity of the tumor.
# Bcl-2 protein = conditions: melanoma; cited from earlier work
smiles,measurement,setting,value
"COC1=C(OC)C(=O)C(C/C=C(\C)CC/C=C(\C)CC/C=C(\C)CC/C=C(\C)CC/C=C(\C)CC/C=C(\C)CC/C=C(\C)CC/C=C(\C)CC/C=C(\C)CCC=C(C)C)=C(C)C1=O [CoQ10, 2,3-dimethoxy-5-methyl-6-decaprenyl-1,4-benzoquinone]",tumor pathology / vascular integrity of the tumor,human melanoma tumors,disruption in tumor vasculature
same,Bcl-2 protein level,Bcl-2 protein,downregulation of the Bcl-2 protein
